Assay type in all cases: cell-based
The target in assay [1] is T1, human receptor PPARγ-Gal4 (Homo sapiens, UniProt P37231).
T1 sequence (P37231 238-505 limits assumed): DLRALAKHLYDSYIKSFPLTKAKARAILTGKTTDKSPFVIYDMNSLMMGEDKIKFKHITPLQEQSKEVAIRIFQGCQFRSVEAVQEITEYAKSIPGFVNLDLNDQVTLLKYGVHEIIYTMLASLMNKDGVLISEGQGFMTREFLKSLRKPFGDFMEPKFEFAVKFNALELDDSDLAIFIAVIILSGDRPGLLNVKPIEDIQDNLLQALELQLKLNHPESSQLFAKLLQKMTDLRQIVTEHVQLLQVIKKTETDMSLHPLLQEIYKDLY
In words: PPAR-Gal4 transactivation test in transfected Cos-7 cells (luciferase reporter), PPARγ. To be noted: for EC50: Cos-7 cells, overnight incubation; for Human receptor PPARγ Top: induction as percentage of reference rosiglitazone at 10^-6 M (=100%). How it is done: (§1) A transactivation test was used as the primary screening test. Cos-7 cells were transfected with a plasmid expressing a chimera of a murine or human receptor PPAR-Gal4 (receptor PPARα-Gal4 or PPARδ-Gal4 or PPARγ-Gal4) and of a reporter plasmid 5Gal4pGL3 TK Luc. The transfections were carried out using a chemical agent (Jet PEI). Transfected cells were distributed into 384 well plates and allowed to stand for 24 hours. At 24 hours the culture medium was changed. The products to be tested were added (final concentration between 10^−4 and 3.10^−10 M) to the culture medium. After overnight incubation, luciferase expression was measured after addition of “SteadyGlo” according to the manufacturer's instructions (Promega).
(§2) Fenofibric acid at 10^−5 M (PPARα agonist), GW501516 at 10^−8 M (PPARδ agonist) and rosiglitazone at 10^−6 M (PPARγ agonist) were used as references.
(§3) The results are expressed as the induction rate (number of times) compared to the basal level as a percentage of activity of the adequate reference (reference=100%). Effect-concentration curves and EC50 were calculated using Assay Explorer (MDL) software.

Assay [2] deals with T2, human receptor PPARδ-Gal4 (Homo sapiens, UniProt Q03181).
T2 sequence (Q03181 171-441 limits assumed): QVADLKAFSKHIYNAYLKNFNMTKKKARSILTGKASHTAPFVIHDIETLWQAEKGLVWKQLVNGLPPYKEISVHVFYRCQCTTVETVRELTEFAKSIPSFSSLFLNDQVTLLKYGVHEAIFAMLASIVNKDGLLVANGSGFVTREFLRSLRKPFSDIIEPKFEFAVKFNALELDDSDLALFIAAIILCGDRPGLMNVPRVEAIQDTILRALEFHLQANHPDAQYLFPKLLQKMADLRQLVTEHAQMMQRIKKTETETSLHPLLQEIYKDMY
In words: PPAR-Gal4 transactivation test in transfected Cos-7 cells (luciferase reporter), PPARδ. To be noted: for EC50: Cos-7 cells, overnight incubation; for Human receptor PPARδ Top: induction as percentage of reference GW501516 at 10^-8 M (=100%). As for the experimental part:
as §1, §2, §3

Assay [3] addresses T3, human receptor PPARα-Gal4 (Homo sapiens, UniProt Q07869).
T3 sequence (Q07869 200-468 limits assumed): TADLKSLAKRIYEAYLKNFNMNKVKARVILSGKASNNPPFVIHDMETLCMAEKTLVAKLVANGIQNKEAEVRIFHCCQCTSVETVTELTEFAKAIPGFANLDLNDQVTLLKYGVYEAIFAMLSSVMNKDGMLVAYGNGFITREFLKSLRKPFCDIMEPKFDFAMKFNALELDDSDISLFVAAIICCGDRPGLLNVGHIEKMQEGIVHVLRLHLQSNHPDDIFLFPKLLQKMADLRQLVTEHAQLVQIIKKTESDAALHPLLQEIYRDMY
The experiment in a line: PPAR-Gal4 transactivation test in transfected Cos-7 cells (luciferase reporter), PPARα. The conditions noted are these: for EC50: Cos-7 cells, overnight incubation; for Human receptor PPARα Top: induction as percentage of reference fenofibric acid at 10^-5 M (=100%). How it is done: as §1, §2, §3

Structures are written as SMILES.

Turning to `O=C(O)CCCc1cc2cc(Cl)ccc2n1S(=O)(=O)c1ccc2ncsc2c1` [Example 1], the values for the 50% effective concentration (EC50) in assay [1], in assay [2] and in assay [3] were 0.085 µM, 0.952 µM and 2.32 µM, respectively.
As to `[2H]c1nc2ccc(S(=O)(=O)n3c(CCCC(=O)O)cc4cc(Cl)ccc43)cc2s1` [Example 1], the “Human receptor PPARγ Top” value in assay [1] is 53%. For the same compound, the “Human receptor PPARδ Top” value in assay [2] is 80%. Besides, the “Human receptor PPARα Top” value in assay [3] came out at 67%.
`[2H]C([2H])(C(=O)O)C([2H])([2H])C([2H])([2H])c1cc2cc(Cl)ccc2n1S(=O)(=O)c1ccc2ncsc2c1` [Example 2, 4-[1-(1,3-Benzothiazol-6-ylsulfonyl)-5-chloro-indol-2-yl]-2,2,3,3,4,4-hexadeuteriobutanoic acid]: in assay [1], the concentration giving a half-maximal response (EC50) was 0.136 µM and the “Human receptor PPARγ Top” value is listed as 50%. For the same compound, in assay [2], a half-maximal response (EC50) required 1.18 µM and the “Human receptor PPARδ Top” value is recorded as 80%. Also, in assay [3], a half-maximal effect (EC50) was put at 2.28 µM and the “Human receptor PPARα Top” value stood at 62%.
